One series concerns 4T1 cells. The experiment in a line: MTT assay, anti-tumor activity against 4T1 cells. As to conditions: 72 h treatment. The class given is cell-based. From the text: (§1) Metastasis is the major reason of morbidity and mortality in cancer disease. In breast cancer patients, several tissues involving liver, lung, bone, and lymph node are affected by tumor involvement. The anti-tumor activities of all newly-synthesized thiophene derivatives were screened for human breast cancer cell lines 4T1, MDA-MB-231, and MCF-7 using MTT (3-(4,5-dimethylthiazol-2-yl)-2,5-diphenyltetrazolium bromide) assay in vitro. Cisplatin was used as a standard anti-tumor drug in this assay. […] The highest activity of 3h might have been due to the presence of electron-donating methylthio group (-SMe) on aromatic phenyl ring.
(§2) In brief, 0.8 × 10^5 cells/mL were seeded in 96-well plates and were incubated in a humidified CO2 incubator overnight. The following day, serial dilution of the samples was performed with various concentration. The plates were left to incubate with the treatment for 72 h. After the designated time, 20 μL of MTT (5 mg/mL) was inserted into each of the wells and the cells were further incubated for an additional 4 h. Later, the media and the treatment were removed from all of the wells and 100 μL of DMSO was added. The absorbance plates were then read using a spectrophotometer (BioTek) at 570 nm.
(Tetrazolium dyes change colour on reduction, which living cells bring about.)

A further series deals with MDA-MB-231 cells. As to the kind of experiment: MTT assay, anti-tumor activity against MDA-MB-231 cells. The class given is cell-based, human. The note with it: 72 h treatment.
From the text: as §1
The anti-tumor activity of all newly-synthesized compounds was also examined against MDA-MB-231 breast cancer cells. […] It is likely possible that the electron-withdrawing iodo groups (-I) attached with phenyl ring might have been affecting the cytotoxicity of MDA-MB-231 cells.
as §2

The next series concerns MCF-7 cells. As to the kind of experiment: MTT assay, anti-tumor activity against MCF-7 cells. The class given is cell-based, human.
From the text: as §1
The anti-tumor activity of these compounds was also studied for MCF-7 breast cancer cell line.
as §2

The next series relates to human blood clots. As to the kind of experiment: Anti-thrombolytic activity (in vitro clot lysis). As to conditions: 100 μL sample, 90 min at 37 °C. From the text: Cerebral Venous Sinus Thrombosis (CVST) is a central nervous disorder, which is a common disease caused by thrombophilia and […]. This fatal disease has been treated by the application of intravenous heparin and warfarin drugs. Now a days, this disease is usually cured by thrombolytic drugs, such as urokinase and streptokinase, which are playing a significant effect in the cure of CVST [25]. In the present study, we have explored the potential of our newly synthesized thiophene derivatives for anti-thrombolytic activity by the procedure reported elsewhere. […] This highest value of % lysis achieved by 3g can be attributed to the electron-withdrawing fluorine and chlorine groups on the aromatic ring.
The anti-thrombolytic activity of all newly-synthesized thiophene derivatives was investigated by following the previously-reported method. In a typical procedure, the sterile eppendorfs were filled with fresh venous blood taken from the human volunteers. The eppendorf tubes, which contained human blood (500 μL), were placed for 45 min at 37 °C to allow for clot formation. Once the clots were formed, the known volumes (100 μL) of sample solutions (3a–i) were added in eppendorfs having no serum in the blood samples. Basically, the serum was removed from blood prior to the clot formation stage. After the addition of samples, the tubes were incubated again for 90 min at 37 °C. For each experiment, the compound Streptokinase was used as a positive control, while water was used as a negative control. The anti-thrombolytic activity of newly-synthesized products was determined at percentage.

A further series relates to Escherichia coli. As to the kind of experiment: Biofilm inhibition assay. The class given is cell-based. As to conditions: E. coli, 50 μM/mL, 24 h at 37 °C. Here is the method:
Pathogenic micro-organisms form a biofilm, which mainly causes morbidness and mortality. This biofilm consists of conglomerations of bacterial cells and secured by a polymeric substance created by itself. Several fatal infections are caused by biofilms and they are difficult to remove. The inhibition activities of all newly-synthesized thiophene derivatives (3a–i) against biofilm formation were assayed using the previously-reported method. The experimentally-determined biofilm inhibition values for all compounds are expressed in Table 3. A selected strain of Gram-negative bacteria (Escherichia coli) was used to determine the anti-bacterial activity of all new derivatives at concentration of 50 μM/mL. […] A likely possible cause of this high activity can be attributed to the electron-withdrawing substituents attached with the aromatic phenyl ring of 3d, which might have been playing a significant role for increasing the anti-bacterial activity of this compound against Gram-negative bacteria. We believe that our newly-developed thiophene-based compounds with high % inhibition values can be potentially used to control the formation of biofilms.
The newly-synthesized thiophene derivatives were assayed for their biofilm inhibition activity using the previously reported method. For these measurements, the solutions of the thiophene derivatives were prepared in ethyl acetate. In brief, about 100 μL of sample solutions (3a–i) and 100 μL nutrient broth (Oxoid, Hampshire, UK) along with bacterial suspension (20 μL) were placed on the wells of 96-well sterile culture plates. Rifampicin was used as a positive control, while nutrient broth was used as a negative control for these biofilm inhibition activity measurements. The plates were covered and incubated for 24 h at 37 °C. Each plate was washed three times by using 220 μL of phosphate-buffered solution. After washing, each plate was shaken strongly in order to remove the non-adherent bacteria. 220 μL of 99% methanol solution was used to fix the remaining bacteria from these plates, followed by the drying in hot oven. After drying, the plates were stained with […] of crystal violet with a concentration of […] for five minutes. The excess stain from these plates was removed simply by using tap water. About 220 µL glacial acetic acid (33% concentration) was used to remove the dye attached with the cells. Each well was examined for OD value with the help of the micro-plate reader (BioTek, Winooski, VT, USA) at 630 nm.

The subject of a further series is red blood cells (RBCs). The experiment in a line: Haemolytic activity. The class given is cell-based. As to conditions: 30 min, pH 7.4. An excerpt:
The newly-synthesized molecules (3a–i) were also examined for their hemolytic activity, following the method reported by Powell and co-workers. The standard drug Triton X-100 was employed as a reference in these measurements. […] Ding et al. reported that chloro group-containing molecules display facile haemolytic activity as compared with those compounds having a methyl group substitution on the ring.
The hemolytic activity of newly synthesized thiophene derivatives was examined by following the previously-reported method. For these measurements, the solutions of the thiophene derivatives were prepared in ethyl acetate. In brief, about 3 mL of newly-obtained heparinized blood was taken in 15 mL sterile Falcon tube, which was later centrifuged for 5 min at 850 rpm. The supernatant was removed and washed three times and was later placed at room temperature for 30 min. In order to wash the thick pellet, 5 mL of ice-cold (4 °C) phosphate-buffered saline (PBS) having pH 7.4 was employed. The same PBS buffer (20 mL) was used to maintain the cells over longer periods of time. The erythrocytes present in cells were measured and diluted with PBS buffer. Approximately 180 µL of this suspension of erythrocytes was taken along with 20 µL of sample solution (3a–i) in eppendorfs. These eppendorfs were incubated thermally at human body temperature for 30 min, followed by centrifuging at 1310 rpm again for 5 min. After significant centrifugation, the supernatant was removed and diluted with phosphate-buffered saline (900 µL) and was later placed on ice. Each sample solution (200 µL) was kept in 96-well culture plates. For each measurement, phosphate-buffered saline and 0.1% Triton X-100 were employed as negative and positive control, respectively. A quant instrument was used to observe the absorbance of all sample solutions at 576 nm.

Setting [1] is: Homo sapiens, MCF7, 72 h treatment.

Data on eleven molecules can be found in paper PMC6273304, “Efficient Double Suzuki Cross-Coupling Reactions of 2,5-Dibromo-3-hexylthiophene: Anti-Tumor, Haemolytic, Anti-Thrombolytic and Biofilm Inhibition Studies” (Molecules, 2016).

“And” between values parts separate entries of the source, which are not always exact repeats. Equal values may be shown once.

As usually defined, the IC50 is the point on the concentration scale where inhibition reaches its midpoint. Lower therefore signals higher potency. For the molecule `N.N.[Cl][Pt][Cl]` [Cisplatin, reference compound], the IC50 with 4T1 cells was 21.5 µM; with MDA-MB-231 cells it was 29 µM and 29.1 µM; with MCF-7 cells (72 h treatment), 48 µM and 48.3 µM.
What is called inhibition is the share of the control response that was lost under treatment. A higher inhibition goes with a response far below the control. In the case of `CCCCCCc1cc(-c2ccc(C)cc2)sc1-c1ccc(C)cc1` [Compound 3a, 2,5-Bis(4-methylphenyl)-3-hexylthiophene], the IC50 with 4T1 cells (4T1, 72 h) was 30.5 ± 0.08 µM; in the series with MDA-MB-231 cells (Homo sapiens) it was 36.8 ± 0.21 µM; in the series with MCF-7 cells (setting [1]), 26.2 ± 0.7 µM. Moreover, in the series with human blood clots, the “% Lysis (clot lysis, anti-thrombolytic activity)” value is given as 16.25 ± 0.028%. For the same molecule, in the series with Escherichia coli, the inhibition at 50 µM was 62.5 ± 0.038%.
Regarding `CCCCCCc1cc(-c2cc(C)cc(C)c2)sc1-c1cc(C)cc(C)c1` [Compound 3b, 2,5-Bis(3,5-dimethylphenyl)-3-hexylthiophene], the IC50 with 4T1 cells (4T1, 72 h) was determined as 30 ± 0.81 µM; with MDA-MB-231 cells (Homo sapiens), 32.2 ± 2.73 µM; in the series with MCF-7 cells (setting [1]) it was 33.8 ± 0.29 µM. The “% Lysis (clot lysis, anti-thrombolytic activity)” value in the series on human blood clots was found to be 25.32 ± 0.092%. In the series with Escherichia coli, this molecule returned an inhibition at 50 µM of 59.48 ± 0.073%. The “% Lysis of RBC” value with red blood cells (RBCs) was 4.54 ± 0.014%.
On to `CCCCCCc1cc(-c2ccc(OC)cc2)sc1-c1ccc(OC)cc1` [Compound 3c, 3-Hexyl-2,5-bis(4-methoxyphenyl)thiophene], for which the IC50 amounted to 29.5 ± 4.3 µM in the series with 4T1 cells (4T1, 72 h); 40 ± 0.41 µM in the series on MDA-MB-231 cells (Homo sapiens); 35.7 ± 0.09 µM in the series with MCF-7 cells (setting [1]). Further, in the series on human blood clots, the “% Lysis (clot lysis, anti-thrombolytic activity)” value was 41.12% and 41.12 ± 0.035%. In the series with Escherichia coli, this molecule yielded an inhibition at 50 µM of 73.27 ± 0.023%. For the same molecule, the “% Lysis of RBC” value in the series with red blood cells (RBCs) stood at 5.80 ± 0.045%.
`CCCCCCc1cc(-c2ccc(Cl)cc2)sc1-c1ccc(Cl)cc1` [Compound 3d, 2,5-Bis(4-chlorophenyl)-3-hexylthiophene]: the IC50 in the series with 4T1 cells (4T1, 72 h) was 22.8 ± 0.04 µM; in the series on MDA-MB-231 cells (Homo sapiens) it was 24.8 ± 0.56 µM; in the series with MCF-7 cells (setting [1]), 27.5 ± 0.67 µM. The “% Lysis (clot lysis, anti-thrombolytic activity)” value in the series on human blood clots is reported as 2.04 ± 0.091%. In the series with Escherichia coli, the inhibition at 50 µM was 78.85 ± 0.057%. In addition, the “% Lysis of RBC” value in the series on red blood cells (RBCs) is on record as 6.66 ± 0.057%.
As to `CCCCCCc1cc(-c2ccc(I)cc2)sc1-c1ccc(I)cc1` [Compound 3e, 3-Hexyl-2,5-bis(4-iodophenyl)thiophene], the IC50 was 21.5 ± 3.71 µM with 4T1 cells (4T1, 72 h); 22.9 ± 3.8 µM in the series on MDA-MB-231 cells (Homo sapiens); 91.4 ± 0.59 µM in the series with MCF-7 cells (setting [1]). For the same molecule, the “% Lysis (clot lysis, anti-thrombolytic activity)” value in the series with human blood clots is reported as 32.42 ± 0.046%. This molecule had an inhibition at 50 µM in the series with Escherichia coli of 73.8 ± 0.032%. In addition, the “% Lysis of RBC” value with red blood cells (RBCs) was determined as 3.62 ± 0.024%.
Take `CCCCCCc1cc(-c2cc(F)cc(F)c2)sc1-c1cc(F)cc(F)c1` [Compound 3f, 2,5-Bis(3,5-difluorophenyl)-3-hexylthiophene]: the IC50 worked out at 31.5 ± 1.1 µM in the series with 4T1 cells (4T1, 72 h); 28.1 ± 0.72 µM with MDA-MB-231 cells (Homo sapiens); 42.8 ± 2.87 µM in the series on MCF-7 cells (setting [1]). Further, in the series on human blood clots, the “% Lysis (clot lysis, anti-thrombolytic activity)” value turned out to be 12.34 ± 0.073%. At 50 µM the inhibition in the series with Escherichia coli was 69.68 ± 0.049%.
For the molecule `CCCCCCc1cc(-c2ccc(F)c(Cl)c2)sc1-c1ccc(F)c(Cl)c1` [Compound 3g, 2,5-Bis(3-chloro-4-fluorophenyl)-3-hexylthiophene], the IC50 in the series with 4T1 cells (4T1, 72 h) was 22 ± 0.57 µM; in the series on MDA-MB-231 cells (Homo sapiens) it was 26.2 ± 0.28 µM; in the series with MCF-7 cells (setting [1]), 44 ± 0.17 µM. In addition, the “% Lysis (clot lysis, anti-thrombolytic activity)” value in the series with human blood clots was 53.12% and 53.12 ± 0.063%. The inhibition at 50 µM in the series with Escherichia coli amounted to 75.53 ± 0.041%. Besides, the “% Lysis of RBC” value in the series on red blood cells (RBCs) stood at 15.57 ± 0.034%.
In the case of `CCCCCCc1cc(-c2ccc(SC)cc2)sc1-c1ccc(SC)cc1` [Compound 3h, 3-Hexyl-2,5-bis(4-(methylthio)phenyl)thiophene], the IC50 with 4T1 cells (4T1, 72 h) amounted to 16 µM; in the series on 4T1 cells it was 16.1 ± 0.09 µM; in the series with MDA-MB-231 cells (Homo sapiens), 29.2 ± 0.04 µM; with MCF-7 cells (setting [1]), 35.1 ± 3.8 µM. Also, in the series with human blood clots, the “% Lysis (clot lysis, anti-thrombolytic activity)” value came out at 0.27 ± 0.021%. In the series on Escherichia coli, the inhibition at 50 µM turned out to be 27.12 ± 0.039%.
For `CCCCCCc1cc(-c2cccc(C(C)=O)c2)sc1-c1cccc(C(C)=O)c1` [Compound 3i, 2,5-Bis(3-acetylphenyl)-3-hexylthiophene], the IC50 in the series on 4T1 cells (4T1, 72 h) stood at 23.2 ± 0.08 µM; with MDA-MB-231 cells (Homo sapiens) it was 36.8 ± 0.82 µM; in the series on MCF-7 cells (setting [1]), 36.8 ± 0.03 µM. The “% Lysis (clot lysis, anti-thrombolytic activity)” value with human blood clots is recorded as 1.84 ± 0.083%. Besides, the inhibition at 50 µM in the series on Escherichia coli is 76.86 ± 0.083%.
Streptokinase [reference compound]: the “% Lysis (clot lysis, anti-thrombolytic activity)” value in the series with human blood clots was 100%.
